Measurements as given in patent US20110070232A1, “Combination Therapy with an Antitumor Alkaloid” (Pharma Mar, S.A., priority 2008, published 2011).
Where two headings read alike, the source gives them in different places.

Key:
Hs746T tumors = format: in vivo, mice; details: mg/kg/day: PM00104 0.90 IV, cisplatin 5 IP, paclitaxel 10 IP
Text: Female athymic nude mice (Harlan Sprague Dawley, Madison, Wis.) were utilized for all experiments. Animals were housed in ventilated rack caging with food and water ad libitum. The mice were acclimated for at least 5 days prior to tumor implantation with a tumor cell suspension. The Vehicle Control group contained 11 mice, groups 2-4 contained 7 mice and the rest of groups contained 8 mice.
The tumor model used in these studies was Hs746T cell line, which was obtained from the ATCC (Manassas, Va.).
Hs746T cells were grown in DMEM supplemented with 10% FBS, 1.5 g/L sodium bicarbonate, 4.5 g/L glucose, and 4 mM L-glutamine. Each animal was implanted SC on the right flank, using a trochar, with 5×10^6 Hs746T cells, from in vitro passage 18, in a 0.2 mL suspension of 50% Matrigel and 50% serum free medium, without antibiotics. Bacterial cultures were performed on aliquots of the cells prepared for implantation.
Treatments were initiated on DPI 16.
(§1) Tumor size measurements were recorded twice weekly from the treatment initiation until the termination of the study.
(§2) Mean, standard deviation and standard error of the mean were determined for tumor volume for all animal groups at all assessments. Student's t test was performed on tumor volumes at each measurement day, including at the end of the study, to determine whether there were any statistically significant differences between combination treatment groups and single monotherapy treatment groups.

[1] = test system: 5637 human bladder carcinoma cell line; assay: IC50 determination, MTS assay, 72 h (Example 2); format: cell-based; details: 72 hours of drug exposure
Method: (§3) The following agents were evaluated in combination with PM00104: gemcitabine (Gemzar®) and cisplatin. The human bladder carcinoma cell lines selected for this assay were the following: 5637 and UM-UC-3 cell lines. 5637 cell line was grown in RPMI 1640 medium supplemented with 10% FBS, 1.5 g/L sodium bicarbonate, 4.5 g/L glucose, 10 mM HEPES, 1 mM sodium pyruvate, and 2 mM L-glutamine. UM-UC-3 cell line was grown in MEM Eagle's medium supplemented with 10% FBS and 2 mM L-glutamine.
(§4) a. […] It was used the same methodology as those disclosed in Example 1.
(§5) IC50 values were calculated from an average of three to four assays for each of the test agents.

[2] = test system: UM-UC-3 human bladder carcinoma cell line; assay: IC50 determination, MTS assay, 72 h (Example 2); format: cell-based
Method: as §3, §4, §5

MIA PaCa-2 tumors = format: in vivo, mice; details: mg/kg/day: PM00104 0.90 IV
Text: Female athymic nude mice (Harlan Sprague Dawley, Madison, Wis.) were utilized for all experiments. Animals were housed in ventilated rack caging with food and water ad libitum. The mice were acclimated for at least 5 days prior to tumor implantation with a tumor cell suspension.
The tumor model used in these studies was MIAPaCA-2 cell line, which was obtained from the ATCC (Manassas, Va.).
Each animal was implanted subcutaneously (SC) on the right flank, using a trochar, with 1×10^7 MIAPaCA-2 cells, from in vitro passage 18, in a 0.2 mL suspension of 50% Matrigel/50% serum free medium, without antibiotics. Matrigel is a biological extracellular matrix that is liquid at 4° C. and solid at 37° C., and it promotes tumor growth by maintaining the cells in close association in a localized area. Bacterial cultures were performed on aliquots of the cells prepared for implantation.
Tumor measurements were determined by using Vernier calipers. The formula to calculate volume for a prolate ellipsoid was used to estimate tumor volume (mm^3) from 2-dimensional tumor measurements: Tumor volume (mm^3)=[L×W^2]÷2, where L is the length and it is the longest diameter in mm, and W is the width and it is the shortest diameter in mm of a tumor. Assuming unit density, volume was converted to weight (i.e., 1 mm^3=1 mg).
Treatments were initiated on DPI (Day Post Implantation) 13. In these experiments, the combination therapy groups were treated by co-administering the two drugs at the same time, with no attempt to sequence the treatments.
as §1, §2
The definition and criteria for the evaluation of potentiation and the degree of additivity for the combination therapy were as follows:
Additivity was determined as discussed above by comparing the % of tumor growth inhibition of the monotherapy groups versus those of the combination group as follows: • 1. Determine the % of tumor growth inhibition, as 100-% T/C, for each of the drugs administered as monotherapy at the doses used in the combinations. % T/C was obtained by comparing the mean tumor weight in the treatment groups (T) to the mean tumor weight in the control group (C) (T/C×100%). • 2. The two scores were added together to determine the “expected response” if each agent produced the same response as it did when administered as monotherapy. • 3. This “expected response” was subtracted from the % of tumor growth inhibition determined for the combination therapy group: • a. […] If the resulting number was close to zero, the effect of combining the two drugs was determined as additive. • c.

[3] = Homo sapiens, UMUC3, 72 hours of drug exposure, read-out: IC50
[4] = day 13, gemcitabine 140 IP, erlotinib 100 PO
[5] = day 15, gemcitabine 140 IP, erlotinib 100 PO
[6] = day 19, gemcitabine 140 IP, erlotinib 100 PO
[7] = day 22, gemcitabine 140 IP, erlotinib 100 PO
[8] = day 27, gemcitabine 140 IP, erlotinib 100 PO
[9] = day 29, gemcitabine 140 IP, erlotinib 100 PO
[10] = day 33, gemcitabine 140 IP, erlotinib 100 PO
[11] = day 36, gemcitabine 140 IP, erlotinib 100 PO

N.N.[Cl][Pt][Cl] [Cisplatin, cisplatin]
% Inhibition (Hs746T tumors; day 16): 3.2% | % T/C on day (Hs746T tumors; day 16): 96.8% | % Inhibition (Hs746T tumors; day 20): 39.5% | % T/C on day (Hs746T tumors; day 20): 60.5% | % Inhibition (Hs746T tumors; day 23): 48.3% | % T/C on day (Hs746T tumors; day 23): 51.7% | % Inhibition (Hs746T tumors; day 26): 55.8% | % T/C on day (Hs746T tumors; day 26): 44.2% | % Inhibition (Hs746T tumors; day 29): 56.7% | % T/C on day (Hs746T tumors; day 29): 43.3% | % Inhibition (Hs746T tumors; day 33): 53.3% | % T/C on day (Hs746T tumors; day 33): 46.7% | % Inhibition (Hs746T tumors; day 36): 53.7% | % T/C on day (Hs746T tumors; day 36): 46.3% | IC50 [1]: 2.4 µg/mL | IC50 ([2]; 72 hours of drug exposure): 0.53 µg/mL

Nc1ccn([C@@H]2O[C@H](CO)[C@@H](O)C2(F)F)c(=O)n1 [Gemcitabine, gemcitabine]
IC50 ([1]; Homo sapiens, read-out: IC50): 0.019 µg/mL | IC50 [2, 3]: 0.022 µg/mL | % Inhibition (MIA PaCa-2 tumors; [4]): 0.0% | % T/C on day (MIA PaCa-2 tumors; [4]): 100.0% | % Inhibition (MIA PaCa-2 tumors; [5]): −5.7% | % T/C on day (MIA PaCa-2 tumors; [5]): 105.7% | % Inhibition (MIA PaCa-2 tumors; [6]): 3.0% | % T/C on day (MIA PaCa-2 tumors; [6]): 97.0% | % Inhibition (MIA PaCa-2 tumors; [7]): 14.5% | % T/C on day (MIA PaCa-2 tumors; [7]): 85.5% | % T/C on day (MIA PaCa-2 tumors; [8]): 89.5% | % Inhibition (MIA PaCa-2 tumors; [9]): 13.7% | % T/C on day (MIA PaCa-2 tumors; [9]): 86.3% | % T/C on day (MIA PaCa-2 tumors; [10]): 87.7% | % Inhibition (MIA PaCa-2 tumors; [11]): −0.3% | % T/C on day (MIA PaCa-2 tumors; [11]): 100.3%

COc1c(C)cc2c(c1O)[C@@H]1[C@@H]3Cc4c(OC(C)=O)c(C)c5c(c4[C@H](CNC(=O)/C=C/c4cccc(C(F)(F)F)c4)N3[C@@H](O)[C@H](C2)N1C)OCO5 [PM00104]
% Inhibition (Hs746T tumors; day 16): 2.0% | % T/C on day (Hs746T tumors; day 16): 98.0% | % Inhibition (Hs746T tumors; day 20): 34.4% | % T/C on day (Hs746T tumors; day 20): 65.6% | % Inhibition (Hs746T tumors; day 23): 49.7% | % T/C on day (Hs746T tumors; day 23): 50.3% | % Inhibition (Hs746T tumors; day 26): 57.2% | % T/C on day (Hs746T tumors; day 26): 42.8% | % Inhibition (Hs746T tumors; day 29): 59.1% | % T/C on day (Hs746T tumors; day 29): 40.9% | % Inhibition (Hs746T tumors; day 33): 49.8% | % T/C on day (Hs746T tumors; day 33): 50.2% | % Inhibition (Hs746T tumors; day 36): 31.4% | % T/C on day (Hs746T tumors; day 36): 68.6% | IC50 ([1]; Homo sapiens, read-out: IC50): 0.0056 µg/mL | IC50 [2, 3]: 0.0069 µg/mL | % Inhibition (MIA PaCa-2 tumors; day 13, erlotinib 50 PO): 0.9% | % Inhibition (MIA PaCa-2 tumors; [4]): 0.9% | % T/C on day (MIA PaCa-2 tumors; [4]): 99.1% | % Inhibition (MIA PaCa-2 tumors; day 15, erlotinib 50 PO): 12.9% | % Inhibition (MIA PaCa-2 tumors; [5]): 12.9% | % T/C on day (MIA PaCa-2 tumors; [5]): 87.1% | % Inhibition (MIA PaCa-2 tumors; day 19, erlotinib 50 PO): 22.8% | % Inhibition (MIA PaCa-2 tumors; [6]): 22.8% | % T/C on day (MIA PaCa-2 tumors; [6]): 77.2% | % Inhibition (MIA PaCa-2 tumors; day 22, erlotinib 50 PO): 39.2% | % Inhibition (MIA PaCa-2 tumors; [7]): 39.2% | % T/C on day (MIA PaCa-2 tumors; [7]): 60.8% | % Inhibition (MIA PaCa-2 tumors; day 27, erlotinib 50 PO): 30.8% | % Inhibition (MIA PaCa-2 tumors; [8]): 30.8% | % T/C on day (MIA PaCa-2 tumors; [8]): 69.2% | % Inhibition (MIA PaCa-2 tumors; day 29, erlotinib 50 PO): 40.0% | % Inhibition (MIA PaCa-2 tumors; [9]): 40.0% | % T/C on day (MIA PaCa-2 tumors; [9]): 60.0% | % Inhibition (MIA PaCa-2 tumors; day 33, erlotinib 50 PO): 36.1% | % Inhibition (MIA PaCa-2 tumors; [10]): 36.1% | % T/C on day (MIA PaCa-2 tumors; [10]): 63.9% | % Inhibition (MIA PaCa-2 tumors; day 36, erlotinib 50 PO): 43.4% | % Inhibition (MIA PaCa-2 tumors; [11]): 43.4% | % T/C on day (MIA PaCa-2 tumors; [11]): 56.6%

C#Cc1cccc(Nc2ncnc3cc(OCCOC)c(OCCOC)cc23)c1 [erlotinib]
% Inhibition (MIA PaCa-2 tumors; day 13, erlotinib 50 PO): −1.5% | % T/C on day (MIA PaCa-2 tumors; day 13, erlotinib 50 PO): 101.5% | % Inhibition (MIA PaCa-2 tumors; [4]): −3.3% | % T/C on day (MIA PaCa-2 tumors; [4]): 103.3% | % Inhibition (MIA PaCa-2 tumors; day 15, erlotinib 50 PO): 3.3% | % T/C on day (MIA PaCa-2 tumors; day 15, erlotinib 50 PO): 96.7% | % Inhibition (MIA PaCa-2 tumors; [5]): −15.4% | % T/C on day (MIA PaCa-2 tumors; [5]): 115.4% | % Inhibition (MIA PaCa-2 tumors; day 19, erlotinib 50 PO): −13.2% | % T/C on day (MIA PaCa-2 tumors; day 19, erlotinib 50 PO): 113.2% | % Inhibition (MIA PaCa-2 tumors; [6]): −22.5% | % Inhibition (MIA PaCa-2 tumors; day 22, erlotinib 50 PO): −4.4% | % T/C on day (MIA PaCa-2 tumors; day 22, erlotinib 50 PO): 104.4% | % Inhibition (MIA PaCa-2 tumors; [7]): 3.6% | % T/C on day (MIA PaCa-2 tumors; [7]): 96.4% | % Inhibition (MIA PaCa-2 tumors; day 27, erlotinib 50 PO): −48.6% | % T/C on day (MIA PaCa-2 tumors; day 27, erlotinib 50 PO): 148.6% | % Inhibition (MIA PaCa-2 tumors; [8]): 4.0% | % T/C on day (MIA PaCa-2 tumors; [8]): 96.0% | % Inhibition (MIA PaCa-2 tumors; day 29, erlotinib 50 PO): −32.0% | % T/C on day (MIA PaCa-2 tumors; day 29, erlotinib 50 PO): 132.0% | % Inhibition (MIA PaCa-2 tumors; [9]): 3.7% | % T/C on day (MIA PaCa-2 tumors; [9]): 96.4% | % Inhibition (MIA PaCa-2 tumors; day 33, erlotinib 50 PO): −15.4% | % T/C on day (MIA PaCa-2 tumors; day 33, erlotinib 50 PO): 115.3% | % Inhibition (MIA PaCa-2 tumors; [10]): −2.7% | % T/C on day (MIA PaCa-2 tumors; [10]): 102.7% | % Inhibition (MIA PaCa-2 tumors; day 36, erlotinib 50 PO): −17.7% | % T/C on day (MIA PaCa-2 tumors; day 36, erlotinib 50 PO): 117.7% | % Inhibition (MIA PaCa-2 tumors; [11]): −6.0% | % T/C on day (MIA PaCa-2 tumors; [11]): 106.0%

CC(=O)O[C@H]1C(=O)[C@@]2(C)[C@H]([C@H](OC(=O)c3ccccc3)[C@]3(O)C[C@H](OC(=O)[C@H](O)[C@@H](NC(=O)c4ccccc4)c4ccccc4)C(C)=C1C3(C)C)[C@]1(OC(C)=O)CO[C@@H]1C[C@@H]2O [paclitaxel]
% Inhibition (Hs746T tumors; day 16): 3.6% | % T/C on day (Hs746T tumors; day 16): 96.4% | % Inhibition (Hs746T tumors; day 20): 36.7% | % T/C on day (Hs746T tumors; day 20): 63.3% | % Inhibition (Hs746T tumors; day 23): 52.3% | % T/C on day (Hs746T tumors; day 23): 47.7% | % Inhibition (Hs746T tumors; day 26): 65.3% | % Inhibition (Hs746T tumors; day 29): 78.6% | % T/C on day (Hs746T tumors; day 29): 21.4% | % Inhibition (Hs746T tumors; day 33): 76.8% | % T/C on day (Hs746T tumors; day 33): 23.2% | % Inhibition (Hs746T tumors; day 36): 69.9% | % T/C on day (Hs746T tumors; day 36): 30.1%
